From paper PMC6449286, “Influence of Multidrug Resistance-Associated Proteins on the Excretion of the ABCC1 Imaging Probe 6-Bromo-7-[^11C]Methylpurine in Mice” (Molecular Imaging and Biology, 2018)
Marks after values point to notes of the source that are not given here. Each block holds one compound with its values, some of them ahead of it.

How the values were obtained:
[1] = Assessment of glutathione conjugation by radio-TLC in mouse tissues and fluids; conditions: for Percentage of S-(6-(7-[^11C]methylpurinyl))glutathione in bile / Percentage of S-(6-(7-[^11C]methylpurinyl))glutathione in brain / Percentage of S-(6-(7-[^11C]methylpurinyl))glutathione in kidney / Percentage of S-(6-(7-[^11C]methylpurinyl))glutathione in liver / Percentage of S-(6-(7-[^11C]methylpurinyl))glutathione in urine: 15 min after i.v. injection; for Percentage of S-(6-(7-[^11C]methylpurinyl))glutathione in plasma: 15 min after i.v. injection of 6-bromo-7-[^11C]methylpurine, n=3
Method: Assessment of Glutathione Conjugation
6-Bromo-7-[11C]methylpurine (26 ± 8 MBq in a volume of 0.1 ml, 0.15 ± 0.06 nmol) was administered i.v. to wild-type and Abcc1(-/-) mice (n = 3 per group) under isoflurane anesthesia.
After a period of 15 min, blood was collected from the retro-bulbar plexus and animals were euthanized. Brain, liver, kidneys, urine and bile were collected. Blood was centrifuged to obtain plasma and proteins were precipitated by the addition of acetonitrile (1 µl per µl plasma). Liver, kidneys and brain were homogenized using an Ultra Turrax T10 (IKA Laboratory Equipment, Staufen, Germany) and proteins were precipitated with acetonitrile (1 ml per liver, 0.2 ml per kidneys/brain). Urine and bile were diluted with acetonitrile (1 µl per µl urine and bile). All solutions were vortexed and then centrifuged (12,000 x g, 1 min, 21°C). Each supernatant (plasma, brain, liver, kidney, urine, bile, 5 µl each) and diluted radiotracer solution as reference were spotted on silica gel 60F 254 nm TLC plates (10 x 20 cm; Merck, Darmstadt, Germany) and plates were developed in water/acetonitrile/acetic acid (92/8/1, v/v/v). Detection was performed by placing the TLC plates on multisensitive phosphor screens (Perkin-Elmer). […]

[2] = design: method as in PMID 1976057; conditions: rats ref 24; cited from earlier work
[3] = target: T1, Abcc1 (Mus musculus, UniProt O35379); design: method as in PMID 23596979, PMID 18985052; conditions: cited from earlier work
T1 construct: from tissue; host or cells: living C57BL/6J mice (wild-type versus Abcc1 knockout), obtained from the University of Oslo
T1 sequence (O35379 whole entry): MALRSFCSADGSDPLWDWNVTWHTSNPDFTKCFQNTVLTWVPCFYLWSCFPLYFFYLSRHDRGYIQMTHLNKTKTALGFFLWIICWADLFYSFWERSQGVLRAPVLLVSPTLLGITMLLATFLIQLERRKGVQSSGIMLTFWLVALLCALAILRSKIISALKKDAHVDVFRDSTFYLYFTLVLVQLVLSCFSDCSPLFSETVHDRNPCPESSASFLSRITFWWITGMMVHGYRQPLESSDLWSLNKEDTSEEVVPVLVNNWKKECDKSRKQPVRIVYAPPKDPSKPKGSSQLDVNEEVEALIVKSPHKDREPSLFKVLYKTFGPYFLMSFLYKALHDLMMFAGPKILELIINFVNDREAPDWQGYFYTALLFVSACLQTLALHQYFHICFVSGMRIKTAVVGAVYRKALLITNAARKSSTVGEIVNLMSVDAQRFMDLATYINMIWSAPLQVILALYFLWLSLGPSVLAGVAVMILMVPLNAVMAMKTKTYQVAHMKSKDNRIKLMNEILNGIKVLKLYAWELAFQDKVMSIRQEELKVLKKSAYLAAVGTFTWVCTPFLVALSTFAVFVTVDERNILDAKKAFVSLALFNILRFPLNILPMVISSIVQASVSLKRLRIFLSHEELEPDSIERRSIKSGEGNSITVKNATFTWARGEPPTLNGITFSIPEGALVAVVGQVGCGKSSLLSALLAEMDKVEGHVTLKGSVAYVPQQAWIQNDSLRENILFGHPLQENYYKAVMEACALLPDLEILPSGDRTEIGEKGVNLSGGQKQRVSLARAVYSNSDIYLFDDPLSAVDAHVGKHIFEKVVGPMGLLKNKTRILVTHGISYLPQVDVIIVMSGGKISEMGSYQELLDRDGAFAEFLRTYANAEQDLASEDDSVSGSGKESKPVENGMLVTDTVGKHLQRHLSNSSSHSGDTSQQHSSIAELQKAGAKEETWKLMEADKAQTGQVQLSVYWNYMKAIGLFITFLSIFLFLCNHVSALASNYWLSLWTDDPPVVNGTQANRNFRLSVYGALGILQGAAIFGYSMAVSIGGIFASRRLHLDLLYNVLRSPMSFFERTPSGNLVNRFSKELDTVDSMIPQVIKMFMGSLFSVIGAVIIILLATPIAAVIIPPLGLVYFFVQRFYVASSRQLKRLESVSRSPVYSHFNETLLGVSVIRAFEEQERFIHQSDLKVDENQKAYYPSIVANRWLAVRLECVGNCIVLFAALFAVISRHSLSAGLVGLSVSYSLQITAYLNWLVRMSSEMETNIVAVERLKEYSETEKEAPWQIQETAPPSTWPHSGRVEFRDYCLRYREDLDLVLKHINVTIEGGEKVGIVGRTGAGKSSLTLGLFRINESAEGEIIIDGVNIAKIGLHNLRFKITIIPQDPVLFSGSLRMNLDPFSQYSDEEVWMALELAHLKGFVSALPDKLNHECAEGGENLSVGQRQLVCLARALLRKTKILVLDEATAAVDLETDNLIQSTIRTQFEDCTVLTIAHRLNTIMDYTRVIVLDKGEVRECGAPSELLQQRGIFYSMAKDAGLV

[4] = target: T1, Abcc1; experiment: 6-bromo-7-[^11C]methylpurine PET in Abcc1 knockout mice; assay type: in vivo
Method: (§1) Groups of wild-type, Abcc4^(−/−), Abcc1^(−/−), and Abcc1^(+/−) mice underwent a baseline PET scan with 6-bromo-7-[^11C]methylpurine at 30 min after i.p. injection of vehicle solution (PBS). […] In addition, groups of wild-type and Abcc1^(−/−) mice were used to determine the percentage of unchanged 6-bromo-7-[^11C]methylpurine in different tissues and fluids.
(§2) During all experimental procedures, animals were kept under isoflurane anesthesia. PET imaging was conducted on a microPET Focus220 scanner (Siemens Medical Solutions, Knoxville, TN, USA). […] Subsequently, 6-bromo-7-[^11C]methylpurine (29 ± 9 MBq in a volume of 0.1 ml, 0.17 ± 0.11 nmol) was administered as an i.v. bolus via the lateral tail vein, and a 90-min dynamic PET scan (energy window: 250–750 keV; timing window: 6 ns) was initiated at the start of radiotracer injection. […] Blood was centrifuged to obtain plasma and aliquots of blood and plasma were counted for radioactivity in a gamma counter (Wizard 1470; Perkin-Elmer, Waltham, MA, USA).
(§3) The PET data were sorted into 25 frames with a duration increasing from 5 s to 20 min. Fourier re-binning of the three-dimensional sinograms followed by a two-dimensional filtered back-projection with a ramp filter resulting in a voxel size of 0.4 × 0.4 × 0.796 mm^3 was used to reconstruct the PET data. Using AMIDE software, brain, right lung, left kidney, urinary bladder, liver, duodenum, intestine, and gall bladder were manually outlined on the PET images to derive concentration-time curves expressed in units of standardized uptake value (SUV = (radioactivity per g/injected radioactivity) × body weight). In addition, the left ventricle of the heart was outlined to obtain an image-derived blood curve. For all organs, the area under the concentration-time curve (AUC) from 0 to 90 min after radiotracer injection was calculated using Prism 7 software (GraphPad Software, La Jolla, CA, USA) and organ-to-blood AUC ratios were calculated. From the log-transformed concentration-time curves in blood, brain, lung, kidney, and liver, the elimination rate constant (kelimination) of radioactivity was determined by linear regression analysis from 17.5 to 80 min after radiotracer injection. A graphical analysis method (integration plot) was used to estimate the rate constant for transfer of radioactivity from blood into different organs (brain, kidney, and liver, kuptake, ml/min/g tissue) using data measured from 0.3 to 3.5 min after radiotracer injection, as described in detail before. Moreover, the rate constant for tubular secretion of radioactivity (kurine, min^−1) was determined from 12.5 to 65 min after radiotracer injection using integration plot analysis.

[5] = system: Abcc4; experiment: 6-bromo-7-[^11C]methylpurine PET in Abcc4^(−/−) mice; assay type: in vivo; conditions: Abcc4^(−/−) vs wild-type mice
Method: as §1, §2
The PET data were sorted into 25 frames with a duration increasing from 5 s to 20 min. […] Using AMIDE software, brain, right lung, left kidney, urinary bladder, liver, duodenum, intestine, and gall bladder were manually outlined on the PET images to derive concentration-time curves expressed in units of standardized uptake value (SUV = (radioactivity per g/injected radioactivity) × body weight). […] From the log-transformed concentration-time curves in blood, brain, lung, kidney, and liver, the elimination rate constant (kelimination) of radioactivity was determined by linear regression analysis from 17.5 to 80 min after radiotracer injection. A graphical analysis method (integration plot) was used to estimate the rate constant for transfer of radioactivity from blood into different organs (brain, kidney, and liver, kuptake, ml/min/g tissue) using data measured from 0.3 to 3.5 min after radiotracer injection, as described in detail before. […]

[6] = Baseline 6-bromo-7-[^11C]methylpurine PET in vehicle-treated wild-type mice; assay type: in vivo
Method: as §1, §2, §3

[7] = MK571 concentrations in plasma and kidneys (HPLC); assay type: in vivo, mice; conditions: mouse, intraperitoneal, 300 mg/kg
Method: Assessment of Glutathione Conjugation […]
euthanized. Brain, liver, kidneys, urine and bile were collected. Blood was centrifuged to obtain […]
fluorescence detector (G1321 FLD). […]
obtain a clear supernatant. The resulting supernatants were injected into the HPLC column.
(5 µm, 100-4.6 mm) preceded by a Chromolith Performance RP-18 pre-column (5 µm, 10-4.6 mm), which was isocratically eluted with acetonitrile/methanol/0.1% aqueous acetic acid (30/20/50, v/v/v) at a flow rate of 2 ml/min. For fluorescence detection, an excitation wavelength of 250 nm and an emission wavelength of 410 nm were used. MK571 eluted with a retention time of 10.1 min. Linear calibration curves were generated by spiking drug-free mouse plasma […]
average correlation coefficient: > 0.999).

[8] = system: ABCC2; design: method as in PMID 12695538, PMID 10760098; conditions: in vitro ref 20, 21; read-out: IC50 for inhibition of substrate transport by ABCC2; cited from earlier work
[9] = system: ABCC4; design: method as in PMID 12695538, PMID 10760098; conditions: in vitro ref 20, 21; read-out: IC50 for inhibition of substrate transport by ABCC4; cited from earlier work
[10] = Abcc1^(−/−) relative to wild-type mice ref 12, 13

SMILES: CN(C)C(=O)CCS[C@@H](SCCC(=O)O)c1cccc(/C=C/c2ccc3ccc(Cl)cc3n2)c1 (single isomer, unassigned) [(S)-enantiomer of MK571]
Apparent tissue unbound fraction [2]: 0.33

SMILES: CN(C)C(=O)CCSC(SCCC(=O)O)c1cccc(/C=C/c2ccc3ccc(Cl)cc3n2)c1 (stereo not drawn) [MK571]
concentration at 120 min ([7]; C57BL/6J, kidney, Kidney unbound concentration of MK571, mice, from rat tissue unbound fraction of (R)-enantiomer): 98 µM | concentration at 120 min ([7]; C57BL/6J, kidney, Kidney unbound concentration of MK571, mice, from rat tissue unbound fraction of (S)-enantiomer): 180 µM | concentration at 120 min ([7]; C57BL/6J, kidney, Mean total MK571 concentration in the kidneys, wild-type mice, as restated in discussion): 544 µM | concentration at 120 min ([7]; kidney, MK571 concentration in kidneys, wild-type mice, approximately 120 min after 300 mg/kg i.p.): 544 ± 58 µM | concentration at 120 min ([7]; plasma, MK571 concentration in plasma, wild-type mice, approximately 120 min after 300 mg/kg i.p.): 251 ± 58 µM | IC50 [8]: 4 µM | IC50 [9]: 10 µM

SMILES: CN(C)C(=O)CCS[C@H](SCCC(=O)O)c1cccc(/C=C/c2ccc3ccc(Cl)cc3n2)c1 (single isomer, unassigned) [(R)-enantiomer of MK571]
Apparent tissue unbound fraction [2]: 0.18

Further lines, with some results ahead:

Percentage of S-(6-(7-[^11C]methylpurinyl))glutathione in bile ([1]; Abcc1^(−/−) mice): 79 ± 1% | Percentage of S-(6-(7-[^11C]methylpurinyl))glutathione in brain ([1]; Abcc1^(−/−) mice): 52 ± 0.4% | Percentage of S-(6-(7-[^11C]methylpurinyl))glutathione in kidney ([1]; Abcc1^(−/−) mice): 63 ± 1% | Percentage of S-(6-(7-[^11C]methylpurinyl))glutathione in liver ([1]; Abcc1^(−/−) mice): 32 ± 4% | Percentage of S-(6-(7-[^11C]methylpurinyl))glutathione in urine ([1]; Abcc1^(−/−) mice): 63 ± 3^a % | Percentage of S-(6-(7-[^11C]methylpurinyl))glutathione in plasma ([1]; Abcc1^(−/−) mice): 43 ± 2^a % | Percentage of S-(6-(7-[^11C]methylpurinyl))glutathione in bile ([1]; wild-type mice): 81 ± 5% | Percentage of S-(6-(7-[^11C]methylpurinyl))glutathione in brain ([1]; wild-type mice): 60 ± 8% | Percentage of S-(6-(7-[^11C]methylpurinyl))glutathione in kidney ([1]; wild-type mice): 58 ± 2% | Percentage of S-(6-(7-[^11C]methylpurinyl))glutathione in liver ([1]; wild-type mice): 37 ± 2% | Percentage of S-(6-(7-[^11C]methylpurinyl))glutathione in urine ([1]; wild-type mice): 77 ± 4% | Percentage of S-(6-(7-[^11C]methylpurinyl))glutathione in plasma ([1]; wild-type mice): 51 ± 2%
SMILES: Cn1cnc2ncnc(SC[C@H](NC(=O)CC[C@H](N)C(=O)O)C(=O)NCC(=O)O)c21 [S-(6-(7-[^11C]methylpurinyl))glutathione]

Plasma-to-blood ratio of radioactivity ([4]; Abcc1^(−/−) mice, venous blood at end of PET scan): 0.60 ± 0.04 | Decrease in kurine ([4]; Abcc1^(−/−) vs wild-type mice): 3.4 fold | Decrease in plasma-to-blood ratio of radioactivity ([4]; Abcc1^(−/−) vs wild-type mice): 2.4 fold | Increase in blood AUC ([4]; Abcc1^(−/−) vs wild-type mice): 3.0 fold | Increase in kuptake, liver ([4]; Abcc1^(−/−) vs wild-type mice): 1.6 fold | Reduction in kelimination, blood ([4]; Abcc1^(−/−) vs wild-type mice): 3.6 fold | Reduction in kelimination, lungs ([4]; Abcc1^(−/−) vs wild-type mice): 5.7 fold | Reduction in kelimination,brain ([4]; Abcc1^(−/−) vs wild-type mice): 9.4 fold | Reduction in kelimination,brain ([4]; heterozygous Abcc1^(+/−) vs wild-type mice): 1.3 fold | Decrease in kelimination, brain [5]: 1.5 fold | Decrease in kelimination, kidneys [5]: 1.4 fold | Decrease in kurine [5]: 2.3 fold | kelimination,brain ([6]; vehicle-treated wild-type mice): 1.37 ± 0.27 h⁻¹ | kuptake,brain ([6]; vehicle-treated wild-type mice): 0.113 ± 0.028 ml/min/g brain | Extraction ratio, liver ([6]; vehicle-treated wild-type mice, assuming hepatic blood flow 1.0 ml/min/g tissue): 0.21 | Extraction ratio, kidneys ([6]; vehicle-treated wild-type mice, assuming renal blood flow 4.1 ml/min/g tissue): 0.18 | Plasma-to-blood ratio of radioactivity ([6]; wild-type mice, venous blood at end of PET scan): 1.46 ± 0.14
SMILES: [11CH3]n1cnc2ncnc(Br)c21 [6-bromo-7-[^11C]methylpurine]
Reduction in kelimination of radioactivity, brain [3, 10]: 9.3 fold | Reduction in kelimination of radioactivity, lungs [3, 10]: 17.2 fold | Conversion into glutathione conjugate in brain and lungs ([3]; mice, within 15 min after i.v. injection ref 12, 13): almost quantitatively converted into its glutathione conjugate | Unchanged 6-bromo-7-[^11C]methylpurine in tissues and fluids ([1]; mouse, in vivo, 15 min): In none of the investigated tissues and fluids unchanged 6-bromo-7-[^11C]methylpurine could be detected
